# Measured values reported in patent US20020137929A1, “1 - (3-heterocyclylphenyl) isothiourea, -isourea, -guanidine and -amidine herbicidal agents” (Intellectual Property Department, BASF Aktiengesellschaft, priority 1998, published 2002).
# Key:
# ZEAMX (Corn, Field) = test: Postemergence herbicidal evaluation; format: in vivo, Zea mays; details: postemergence
# Outline: (§1)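 Two-week-old seedlings sprayed with compound in 50/50 acetone/water plus 0.5% TWEEN 20, at about 0.0156 to 0.500 kg/ha, nozzle at 40 psi. Kept in greenhouse; rated visually 4-5 weeks after treatment on a 0-9 scale versus control, repeat tests averaged.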
# CASOB (Sicklepod) = test: Preemergence herbicidal evaluation; format: in vivo, Cassia obtusifolia; details: rated 4-5 weeks after treatment, rating scale 0-9
# Outline: (§2)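 Herbicidal effect scored visually, 0-9, at 4 to 5 weeks against a control; compound applied preemergence by aqueous acetone spray to seeded soil at about 0.0156 to 0.500 kg/ha.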
# [1] = system: IPOHE (Morningglory, Ivyleaf); test: Postemergence herbicidal evaluation; format: in vivo, Ipomoea hederacea; details: postemergence
# Outline: as §1
# [2] = system: SAGPY (Arrowhead (Pygmaea)); test: Preemergence weed control under flooded paddy conditions; format: in vivo, Sagittaria pygmaea; details: rated 3-4 weeks after treatment
# Outline: (§3)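 First, seeds or propagules go into the top 0.5 cm of silt loam; next, water is held 1.5 to 3 cm over the soil; then compound (50/50 acetone/water) is pipetted into it at about 0.0313 to 0.500 kg/ha; finally plants are rated visually 0-9 after three to four weeks.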
# AMBEL (Ragweed, Common) [3] = test: Preemergence herbicidal evaluation; format: in vivo, Ambrosia artemisifolia; details: rated 4-5 weeks after treatment, rating scale 0-9
# Outline: as §2
# SETVI (Foxtail, Green) = test: Preemergence herbicidal evaluation; format: in vivo, Setaria viridis; details: rated 4-5 weeks after treatment, rating scale 0-9
# Outline: as §2
# AMBEL (Ragweed, Common) [4] = test: Postemergence herbicidal evaluation; format: in vivo, Ambrosia artemisifolia; details: postemergence
# Outline: as §1
# ABUTH (Velvetleaf) = test: Preemergence herbicidal evaluation; format: in vivo, Abutilon theophrasti; details: rated 4-5 weeks after treatment, rating scale 0-9
# Outline: as §2
# CYPSE (Flatsedge) = test: Preemergence weed control under flooded paddy conditions; format: in vivo, Cyperus serotinus; details: rated 3-4 weeks after treatment
# Outline: as §3
# ECHCG (Barnyardgrass) = test: Preemergence herbicidal evaluation; format: in vivo, Echinochloa crus-galli; details: rated 4-5 weeks after treatment, rating scale 0-9
# Outline: as §2
# [5] = system: GLXMAW (Soybean, Williams); test: Preemergence herbicidal evaluation; format: in vivo, Glycine max, (L.) Merr. cv Williams; details: rated 4-5 weeks after treatment, rating scale 0-9
# Outline: as §2
# [6] = system: GLXMAW (Soybean, Williams); test: Postemergence herbicidal evaluation; format: in vivo, Glycine max, (L.) Merr. cv Williams; details: postemergence
# Outline: as §1
# GALAP (Galium) = test: Preemergence herbicidal evaluation; format: in vivo, Galium aparine; details: rated 4-5 weeks after treatment, rating scale 0-9
# Outline: as §2
smiles,measurement,setting,value
"Cn1c(C(F)(F)F)cc(=O)n(-c2cc(N=C3SCC(=O)N3Cc3ccc(Cl)cc3)c(Cl)cc2F)c1=O [Compound 145, 3-{4-Chloro-5-{[3-(p-chlorobenzyl)-4-oxo-2-thiazolidinylidene]amino}-2-fluorophenyl}-1-methyl-6-(trifluoromethyl)-2,4(1H,3H)-pyrimidinedione]",herbicidal rating ZEAMX,"ZEAMX (Corn, Field); rate 0.0156 kg/ha",4.0
same,herbicidal rating ZEAMX,"ZEAMX (Corn, Field); rate 0.0313 kg/ha",4.0
same,herbicidal rating ZEAMX,"ZEAMX (Corn, Field); rate 0.0625 kg/ha",5.0
same,Preemergence herbicidal rating CASOB,CASOB (Sicklepod); rate 0.0156 kg/ha,1.0
same,Preemergence herbicidal rating CASOB,CASOB (Sicklepod); rate 0.0313 kg/ha,1.0
same,Preemergence herbicidal rating CASOB,CASOB (Sicklepod); rate 0.0625 kg/ha,6.0
same,Preemergence herbicidal rating CASOB,CASOB (Sicklepod); rate 0.1250 kg/ha,1.0
same,Preemergence herbicidal rating CASOB,CASOB (Sicklepod); rate 0.2500 kg/ha,7.0
same,herbicidal rating IPOHE,[1]; rate 0.0156 kg/ha,9.0
same,herbicidal rating IPOHE,[1]; rate 0.0313 kg/ha,9.0
same,herbicidal rating IPOHE,[1]; rate 0.0625 kg/ha,9.0
same,"herbicidal effect rating, SAGPY",[2]; 0.0313 kg/ha,0.0
same,"herbicidal effect rating, SAGPY",[2]; 0.0625 kg/ha,2.0
same,"herbicidal effect rating, SAGPY",[2]; 0.1250 kg/ha,5.0
same,"herbicidal effect rating, SAGPY",[2]; 0.2500 kg/ha,5.0
same,Preemergence herbicidal rating AMBEL,"AMBEL (Ragweed, Common) [3]; rate 0.0156 kg/ha",0.0
same,Preemergence herbicidal rating AMBEL,"AMBEL (Ragweed, Common) [3]; rate 0.0313 kg/ha",0.0
same,Preemergence herbicidal rating AMBEL,"AMBEL (Ragweed, Common) [3]; rate 0.0625 kg/ha",2.0
same,Preemergence herbicidal rating AMBEL,"AMBEL (Ragweed, Common) [3]; rate 0.1250 kg/ha",5.0
same,Preemergence herbicidal rating AMBEL,"AMBEL (Ragweed, Common) [3]; rate 0.2500 kg/ha",7.0
same,Preemergence herbicidal rating SETVI,"SETVI (Foxtail, Green); rate 0.0156 kg/ha",1.0
same,Preemergence herbicidal rating SETVI,"SETVI (Foxtail, Green); rate 0.0313 kg/ha",0.0
same,Preemergence herbicidal rating SETVI,"SETVI (Foxtail, Green); rate 0.0625 kg/ha",7.0
same,Preemergence herbicidal rating SETVI,"SETVI (Foxtail, Green); rate 0.1250 kg/ha",3.0
same,Preemergence herbicidal rating SETVI,"SETVI (Foxtail, Green); rate 0.2500 kg/ha",7.0
same,herbicidal rating AMBEL,"AMBEL (Ragweed, Common) [4]; rate 0.0156 kg/ha",9.0
same,herbicidal rating AMBEL,"AMBEL (Ragweed, Common) [4]; rate 0.0313 kg/ha",9.0
same,herbicidal rating AMBEL,"AMBEL (Ragweed, Common) [4]; rate 0.0625 kg/ha",9.0
same,Preemergence herbicidal rating ABUTH,ABUTH (Velvetleaf); rate 0.0156 kg/ha,0.0
same,Preemergence herbicidal rating ABUTH,ABUTH (Velvetleaf); rate 0.0313 kg/ha,2.0
same,Preemergence herbicidal rating ABUTH,ABUTH (Velvetleaf); rate 0.0625 kg/ha,3.0
same,Preemergence herbicidal rating ABUTH,ABUTH (Velvetleaf); rate 0.1250 kg/ha,9.0
same,Preemergence herbicidal rating ABUTH,ABUTH (Velvetleaf); rate 0.2500 kg/ha,6.0
same,"herbicidal effect rating, CYPSE",CYPSE (Flatsedge); 0.1250 kg/ha,9.0
same,"herbicidal effect rating, CYPSE",CYPSE (Flatsedge); 0.2500 kg/ha,9.0
same,Preemergence herbicidal rating ECHCG,ECHCG (Barnyardgrass); rate 0.0156 kg/ha,0.0
same,Preemergence herbicidal rating ECHCG,ECHCG (Barnyardgrass); rate 0.0313 kg/ha,0.0
same,Preemergence herbicidal rating ECHCG,ECHCG (Barnyardgrass); rate 0.0625 kg/ha,1.0
same,Preemergence herbicidal rating ECHCG,ECHCG (Barnyardgrass); rate 0.1250 kg/ha,1.0
same,Preemergence herbicidal rating ECHCG,ECHCG (Barnyardgrass); rate 0.2500 kg/ha,1.0
same,Preemergence herbicidal rating GLXMAW,[5]; rate 0.0156 kg/ha,0.0
same,Preemergence herbicidal rating GLXMAW,[5]; rate 0.0313 kg/ha,0.0
same,Preemergence herbicidal rating GLXMAW,[5]; rate 0.0625 kg/ha,0.0
same,Preemergence herbicidal rating GLXMAW,[5]; rate 0.1250 kg/ha,1.0
same,Preemergence herbicidal rating GLXMAW,[5]; rate 0.2500 kg/ha,2.0
same,herbicidal rating GLXMAW,[6]; rate 0.0156 kg/ha,4.5
same,herbicidal rating GLXMAW,[6]; rate 0.0313 kg/ha,5.0
same,herbicidal rating GLXMAW,[6]; rate 0.0625 kg/ha,5.5
same,Preemergence herbicidal rating GALAP,GALAP (Galium); rate 0.0156 kg/ha,0.0
same,Preemergence herbicidal rating GALAP,GALAP (Galium); rate 0.0313 kg/ha,0.0
same,Preemergence herbicidal rating GALAP,GALAP (Galium); rate 0.0625 kg/ha,0.0
same,Preemergence herbicidal rating GALAP,GALAP (Galium); rate 0.1250 kg/ha,1.0
same,Preemergence herbicidal rating GALAP,GALAP (Galium); rate 0.2500 kg/ha,3.0
"Cn1c(C(F)(F)F)cc(=O)n(-c2cc(N=C3SCC(=O)N3Cc3ccc(S(N)(=O)=O)cc3)c(Cl)cc2F)c1=O [Compound 135, Alpha-{2-{{2-chloro-5-[3,6-dihydro-3-methyl-2,6-dioxo-4-(trifluoromethyl)-1(2H)-pyrimidinyl]-4-fluorophenyl}imino}-4-oxo-3-thiazolidinyl}-p-toluenesulfonamide]",herbicidal rating ZEAMX,"ZEAMX (Corn, Field); rate 0.0156 kg/ha",3.5
same,herbicidal rating ZEAMX,"ZEAMX (Corn, Field); rate 0.0313 kg/ha",4.0
same,herbicidal rating ZEAMX,"ZEAMX (Corn, Field); rate 0.0625 kg/ha",4.0
same,Preemergence herbicidal rating CASOB,CASOB (Sicklepod); rate 0.0156 kg/ha,0.0
same,Preemergence herbicidal rating CASOB,CASOB (Sicklepod); rate 0.0313 kg/ha,1.0
same,Preemergence herbicidal rating CASOB,CASOB (Sicklepod); rate 0.0625 kg/ha,1.0
same,Preemergence herbicidal rating CASOB,CASOB (Sicklepod); rate 0.1250 kg/ha,1.0
same,Preemergence herbicidal rating CASOB,CASOB (Sicklepod); rate 0.2500 kg/ha,5.0
same,herbicidal rating IPOHE,[1]; rate 0.0156 kg/ha,9.0
same,herbicidal rating IPOHE,[1]; rate 0.0313 kg/ha,9.0
same,herbicidal rating IPOHE,[1]; rate 0.0625 kg/ha,9.0
same,"herbicidal effect rating, SAGPY",[2]; 0.0313 kg/ha,0.0
same,"herbicidal effect rating, SAGPY",[2]; 0.0625 kg/ha,3.0
same,"herbicidal effect rating, SAGPY",[2]; 0.1250 kg/ha,5.0
same,"herbicidal effect rating, SAGPY",[2]; 0.2500 kg/ha,6.0
same,Preemergence herbicidal rating AMBEL,"AMBEL (Ragweed, Common) [3]; rate 0.0156 kg/ha",0.0
same,Preemergence herbicidal rating AMBEL,"AMBEL (Ragweed, Common) [3]; rate 0.0313 kg/ha",0.0
same,Preemergence herbicidal rating AMBEL,"AMBEL (Ragweed, Common) [3]; rate 0.0625 kg/ha",0.0
same,Preemergence herbicidal rating AMBEL,"AMBEL (Ragweed, Common) [3]; rate 0.1250 kg/ha",4.0
same,Preemergence herbicidal rating AMBEL,"AMBEL (Ragweed, Common) [3]; rate 0.2500 kg/ha",7.0
same,Preemergence herbicidal rating SETVI,"SETVI (Foxtail, Green); rate 0.0156 kg/ha",0.0
same,Preemergence herbicidal rating SETVI,"SETVI (Foxtail, Green); rate 0.0313 kg/ha",0.0
same,Preemergence herbicidal rating SETVI,"SETVI (Foxtail, Green); rate 0.0625 kg/ha",2.0
same,Preemergence herbicidal rating SETVI,"SETVI (Foxtail, Green); rate 0.1250 kg/ha",4.0
same,Preemergence herbicidal rating SETVI,"SETVI (Foxtail, Green); rate 0.2500 kg/ha",7.0
same,herbicidal rating AMBEL,"AMBEL (Ragweed, Common) [4]; rate 0.0156 kg/ha",9.0
same,herbicidal rating AMBEL,"AMBEL (Ragweed, Common) [4]; rate 0.0313 kg/ha",9.0
same,herbicidal rating AMBEL,"AMBEL (Ragweed, Common) [4]; rate 0.0625 kg/ha",9.0
same,Preemergence herbicidal rating ABUTH,ABUTH (Velvetleaf); rate 0.0156 kg/ha,0.0
same,Preemergence herbicidal rating ABUTH,ABUTH (Velvetleaf); rate 0.0313 kg/ha,0.0
same,Preemergence herbicidal rating ABUTH,ABUTH (Velvetleaf); rate 0.0625 kg/ha,3.0
same,Preemergence herbicidal rating ABUTH,ABUTH (Velvetleaf); rate 0.1250 kg/ha,6.0
same,Preemergence herbicidal rating ABUTH,ABUTH (Velvetleaf); rate 0.2500 kg/ha,8.0
same,"herbicidal effect rating, CYPSE",CYPSE (Flatsedge); 0.1250 kg/ha,0.0
same,"herbicidal effect rating, CYPSE",CYPSE (Flatsedge); 0.2500 kg/ha,0.0
same,Preemergence herbicidal rating ECHCG,ECHCG (Barnyardgrass); rate 0.0156 kg/ha,0.0
same,Preemergence herbicidal rating ECHCG,ECHCG (Barnyardgrass); rate 0.0313 kg/ha,0.0
same,Preemergence herbicidal rating ECHCG,ECHCG (Barnyardgrass); rate 0.0625 kg/ha,0.0
same,Preemergence herbicidal rating ECHCG,ECHCG (Barnyardgrass); rate 0.1250 kg/ha,0.0
same,Preemergence herbicidal rating ECHCG,ECHCG (Barnyardgrass); rate 0.2500 kg/ha,1.0
same,Preemergence herbicidal rating GLXMAW,[5]; rate 0.0156 kg/ha,0.0
same,Preemergence herbicidal rating GLXMAW,[5]; rate 0.0313 kg/ha,0.0
same,Preemergence herbicidal rating GLXMAW,[5]; rate 0.0625 kg/ha,0.0
same,Preemergence herbicidal rating GLXMAW,[5]; rate 0.1250 kg/ha,1.0
same,Preemergence herbicidal rating GLXMAW,[5]; rate 0.2500 kg/ha,3.0
same,herbicidal rating GLXMAW,[6]; rate 0.0156 kg/ha,5.0
same,herbicidal rating GLXMAW,[6]; rate 0.0313 kg/ha,5.0
same,herbicidal rating GLXMAW,[6]; rate 0.0625 kg/ha,5.0
same,Preemergence herbicidal rating GALAP,GALAP (Galium); rate 0.0156 kg/ha,0.0
same,Preemergence herbicidal rating GALAP,GALAP (Galium); rate 0.0313 kg/ha,0.0
same,Preemergence herbicidal rating GALAP,GALAP (Galium); rate 0.0625 kg/ha,0.0
same,Preemergence herbicidal rating GALAP,GALAP (Galium); rate 0.1250 kg/ha,0.0
same,Preemergence herbicidal rating GALAP,GALAP (Galium); rate 0.2500 kg/ha,1.0
